Results as given in patent publication US20230346864A1, “Compositions and Methods for Joint Health” (Innophos, LLC, priority 2020, published 2023).

Legend:
CTX-II = test: CIA rats: urine CTX-II ELISA; assay type: in vivo, Rat; details: Methotrexate 0.5 mg/kg
Source text: (§1) Collagen induced arthritis (CIA) in rats was developed and utilized to evaluate efficacy of orally administered cashew skin extract for three weeks post disease induction. The study included seven groups of rats (n=9 rats/group). The rats were purpose bred male Sprague—Dawley rats (7-8 weeks old, Charles River Laboratories Inc., Wilmington, MA). Animals were acclimated for two weeks to achieve the required body weight before being assigned randomly to their respective group. Rats (3/cage) were housed in a polypropylene cage and individually identified by numbers on their tail. Individual cages were identified with a cage card indicating project number, test article, dose level, group, and animal number. Harlan Soft cob bedding (Envigo Tekland 7087, Envigo, Indianapolis, Indiana) was used and changed at least twice/week. Animals were provided with fresh water and rodent chow diet (Teklad 2018, Envigo, Indianapolis, Indiana) ad libitum and housed in a temperature-controlled room (22.2° C.) on a 12-h light-dark cycle throughout the study.
(§2) During the in-life period, arthritis severity index, paw thickness, ankle diameter and pain sensitivity were monitored. Urine and serum were collected at the end of study for biomarker analysis. […] Urinary cartilage degradation marker (CTX-II), proinflammatory cytokines (TNF-α, IL-1β, and IL-6), cartilage synthesis marker (PIIANP) and matrix degrading proteases (MMP13) were measured.
Assay. Rat urine samples were diluted 1:3 and the presence of CTX-II was measured using the Rat CTX-II ELISA kit from Mybiosource as follows. […] After the addition of stop solution, the absorbance was read at 450 nm, multiplied by dilution factor, and the concentration of CTX-II calculated based on the absorbance readings of a CTX-II standard curve.
Creatine—CTX-II amount was normalized to the amount of Creatinine in the urine using a Creatinine Parameter Assay Kit (R&D Systems) as follows. […] Absorbance was read at 492 nm, and Creatinine amount in urine was calculated based on the absorbance readings of a Creatinine standard curve. […]

[1] = test system: collagen-induced arthritis (CIA) model in rats; test: CIA rats: pain sensitivity (Randall—Selitto probe); assay type: in vivo, Sprague—Dawley rats; details: Methotrexate 0.5 mg/kg; range over time points
Source text: as §1
(§3) The study rats were randomized and administered one of seven study articles as noted in Table 4— […]
(§4) Rats were evaluated for arthritis index before injection of a booster dose. […]
(§5) During the in-life period, arthritis severity index, paw thickness, ankle diameter and pain sensitivity were monitored. […]

[2] = test system: collagen-induced arthritis (CIA) model in rats; test: CIA rats: paw thickness / paw edema; assay type: in vivo, Sprague—Dawley rats; details: day 7-day 21; Methotrexate 0.5 mg/kg; vs vehicle treated CIA
Source text: as §1, §3, §4, §5

PIIANP = test: CIA rats: serum PIIANP ELISA; assay type: in vivo, Rat; details: Methotrexate 0.5 mg/kg
Source text: as §1, with “Harlan Soft cob bedding (Envigo Tekland 7087, Envigo, Indianapolis, Indiana) was used and changed at least twice/week. Animals were provided with fresh water and rodent chow diet (Teklad 2018, Envigo, Indianapolis, Indiana) ad libitum and housed in a temperature-controlled room (22.2° C.) on a 12-h light-dark cycle throughout the study.” left out
as §2, with “monitored.” for “monitored. Urine and serum were collected at the end of study for biomarker analysis.”
ELISA Assay. The presence of PIIANP was measured using the Rat Procollagen Type IIA N-Prop (PIIANP) ELISA kit (MyBiosource, San Diego, California) as follows. […] After the addition of stop solution, the absorbance was read at 450 nm and the concentration of PIIANP calculated based on the absorbance readings of a PIIANP standard curve.

[3] = test system: collagen-induced arthritis (CIA) model in rats; test: CIA rats: arthritis severity index; assay type: in vivo, Sprague—Dawley rats; details: Methotrexate 0.5 mg/kg; vehicle CIA rats day 10
Source text: as §1, §3, §4, §5

[4] = test system: collagen-induced arthritis (CIA) model in rats; test: CIA rats: ankle joint histopathology (modified Mankin system); assay type: in vivo, Sprague—Dawley rats; details: Methotrexate 0.5 mg/kg
Source text: as §1
During the in-life period, arthritis severity index, paw thickness, ankle diameter and pain sensitivity were monitored. Urine and serum were collected at the end of study for biomarker analysis. Necropsy was carried out on day 22 for all the groups post priming. At necropsy, the ankle joint from each rat was collected for histopathology analysis. Urinary cartilage degradation marker (CTX-II), proinflammatory cytokines (TNF-α, IL-1β, and IL-6), cartilage synthesis marker (PIIANP) and matrix degrading proteases (MMP13) were measured.
Procedures and Evaluations. At necropsy, the ankle joint was carefully dissected out, fixed in 10% buffered formalin, and sent to Nationwide Histology (Veradale, WA, USA) for further histopathology analysis. The fixed specimens were then decalcified with Calci-Clear Rapid for one and a half days and embedded in paraffin. Standardized 5 μm serial sections were obtained from each rat and stained with hematoxylin and eosin (HE) and Safranin 0-fast green to enable evaluation of proteoglycan content. A modified Mankin system (Mankin et al., 1981) was used to score structural and cellular alterations of articular components as indications of disease progression and/or treatment efficacy. The histological analysis was conducted by a certified Pathologist at Nationwide Histology.

[5] = test system: collagen-induced arthritis (CIA) model in rats; test: CIA rats: ankle diameter; assay type: in vivo, Sprague—Dawley rats; details: days 7 to 21; Methotrexate 0.5 mg/kg
Source text: as §1, §3, §4, §5

IL-1β = test: CIA rats: serum IL-1β ELISA; assay type: in vivo, Rat; details: Methotrexate 0.5 mg/kg
Source text: as §1, with “Harlan Soft cob bedding (Envigo Tekland 7087, Envigo, Indianapolis, Indiana) was used and changed at least twice/week. Animals were provided with fresh water and rodent chow diet (Teklad 2018, Envigo, Indianapolis, Indiana) ad libitum and housed in a temperature-controlled room (22.2° C.) on a 12-h light-dark cycle throughout the study.” left out
as §2, with “monitored.” for “monitored. Urine and serum were collected at the end of study for biomarker analysis.”, “measured. […]” for “measured.”
ELISA Assay. The presence of cytokines IL-1β/IL-6/TNF-α was measured using the Rat IL-1β/IL-6/TNF-α Quantikine ELISA kit (R&D Systems, Minneapolis, Minnesota) as follows. […] After the addition of stop solution, the absorbance was read at 450 nm and the concentration of IL-1β/IL-6/TNF-α calculated based on the absorbance readings of an IL-1β/IL-6/TNF-α standard curve.

[6] = test system: potato 5-Lipoxygenase enzyme; test: 5-LOX inhibition, Lipoxygenase Inhibitor Screening Assay Kit; assay type: biochemical; details: at 100 μM
Method: Cashew testa extract was tested for 5-LOX inhibition using the Lipoxygenase Inhibitor Screening Assay Kit (available from Cayman Chemical, Ann Arbor, Michigan, US) and potato 5-Lipoxygenase enzyme (available from Cayman Chemical). This kit measures hydroperoxides produced in the lipoxygenation reaction.
The extracts were dissolved in methanol to final working concentrations. 5-LOX enzyme, Chromagen, and Linoleic Acid solutions were prepared immediately before use. Nordihydroguaiaretic acid (‘NDGA’) was used as a positive control. 5-LOX enzyme was added to the test samples and controls and incubated for five minutes at room temperature to allow for enzyme/inhibitor interaction. Linoleic acid substrate was added to the plate to initiate the reaction, and the plate was then shaken at room temperature for 10 minutes. Chromagen was added to visualize the hydroperoxides formed during the reaction and the plate was shaken at room temperature for another five minutes. The absorbance was then read at 492 nm. Percent inhibition of the extract concentration was calculated in comparison to the uninhibited control wells.
Cashew testa extract was tested for its 5-LOX inhibition activity at 10 different concentrations (0.7, 1.5, 3.0, 6.0, 11.9, 15.6, 31.2, 62.5, 125.0 and 250.0 μg/mL).

Structure (SMILES) | urine CTX-II, cartilage protection vs vehicle treated CIA rats (CTX-II; normalized with creatinine) | urine CTX-II, cartilage protection vs vehicle treated CIA rats (CTX-II; normalized with protein) | urine CTX-II, cartilage protection vs vehicle treated CIA rats (CTX-II; raw data) | pain tolerance vs Vehicle treated CIA [1] | reduction in paw edema, area under the swelling curve [2] | increase in serum PIIANP compared to CIA+vehicle (PIIANP) | disease onset, day after priming [3] | GAG loss, lower than vehicle [4] | bone erosion, lower than vehicle [4] | cartilage destruction, lower than vehicle [4] | inflammation, lower than vehicle [4] | reduction in ankle diameter, area under the curve [5] | reduction in serum level of IL-1β vs CIA rats treated with vehicle (IL-1β) | 5-LOX enzyme inhibition [6]
CN(Cc1cnc2nc(N)nc(N)c2n1)c1ccc(C(=O)N[C@@H](CCC(=O)O)C(=O)O)cc1 [MTX, Methotrexate] | 27.2% | 22.9% | up to 53.8% | 14.1-67.1% | 90.2% | 41% | 14 | 50.7% | 71.2% | 50.7% | 55.8% | 89.1% | 86.4% | 
CC(Cc1ccc(O)c(O)c1)C(C)Cc1ccc(O)c(O)c1 (centres unmarked) [NDGA, Nordihydroguaiaretic acid] |  |  |  |  |  |  |  |  |  |  |  |  |  | 100%
